Legend:
anesthetized dogs = assay: Evaluation of cardiovascular dynamics and electrocardiogram in anesthetized dogs; type: in vivo, dog; conditions: single administration; for HR / LVdP/dt / PQ interval / QRS interval / QTc interval / mAP: percent change vs value prior to administration; for effects on the cardiovascular system: summary of Tables 4 to 8
Text: <Evaluation of Cardiovascular Dynamics and Electrocardiogram in Anesthetized Dogs> Method Anesthetized dogs were used for the experiment. After isolating the […], a microchip pressure transducer catheter was inserted therein, and the tip was situated near the aortic orifice and in the left ventricle, for measurement of the arterial pressure (AP) and left ventricular pressure (LVP). The LVP was differentiated using a differentiation unit, and the maximum value of the first derivative of the left ventricular pressure ([…] used as the index of the […] contractility. The heart rate (HR) was measured using an instantaneous heart rate counter, with the LVP waveforms as the trigger. A needle electrode was fixed to the right anterior limb and left and right posterior limbs, and a standard II-lead electrocardiogram was taken. The parameters were recorded on a recording sheet. The test substance was administered through the venous catheter inserted in the femoral vein. Administration of Test Substance and Recording Single Administration: The test substance was administered through the catheter for 1 minute. The electrocardiogram was recorded at 2 minutes after administration, and the change in the cardiovascular dynamic was recorded continuously for 10 minutes after the administration. After 10 minutes, the dose was increased and the recording was repeated. Continuous Intravenous Infusion: The test substance was administered through the catheter for a period of one minute, and then a sustained dose was administered by continuous intravenous infusion. The electrocardiogram was recorded at the 5 and 10 minute points, and the change in cardiovascular dynamic was recorded continuously for 10 minutes from the start of administration. After 10 minutes, the dose was increased and the recording was repeated. Analysis The HR, mean arterial pressure (mAP), LVdP/dtmax and electrocardiogram parameters (RR interval, PQ interval, QRS interval, QT interval) were read from the recording sheet. The QT interval was heart rate-corrected and represented as the QTc interval.

[1] = tested on: left saphenous nerve of rats (ectopic firing); assay: Inhibition of ectopic firing; type: in vivo; conditions: Rattus norvegicus, iv; rats with cut left saphenous nerve, urethane anesthesia, compound via catheter in right cervical vein, number of firings in 10 seconds; read-out: Inhibition of ectopic firing (ID50)
Method in brief: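 Rat left saphenous nerve transected near the knee (~3 mm excised); recorded more than a week later under urethane (1 g/kg) anesthesia. Compound given via right cervical vein catheter. Ectopic firing recorded with platinum hook electrode, scored as number of firings in 10 seconds.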

Compound	HR (anesthetized dogs; dose 1 mg/kg weight) [%]	LVdP/dt (anesthetized dogs; dose 1 mg/kg weight) [%]	PQ interval (anesthetized dogs; dose 1 mg/kg weight) [%]	QRS interval (anesthetized dogs; dose 1 mg/kg weight) [%]	QTc interval (anesthetized dogs; dose 1 mg/kg weight) [%]	mAP (anesthetized dogs; dose 1 mg/kg weight) [%]	effects on the cardiovascular system (anesthetized dogs)	HR (anesthetized dogs; dose 3 mg/kg weight) [%]	LVdP/dt (anesthetized dogs; dose 3 mg/kg weight) [%]	PQ interval (anesthetized dogs; dose 3 mg/kg weight) [%]	QTc interval (anesthetized dogs; dose 3 mg/kg weight) [%]	mAP (anesthetized dogs; dose 3 mg/kg weight) [%]	further results
CN(C)CCC=C1c2ccccc2CCc2ccccc21 [Amitriptyline]	−4.0	−21.7	8.7	15.4	13.1	−25.4	exhibited effects on the cardiovascular system						HR (anesthetized dogs; dose 0.3 mg/kg weight): −2.9%; LVdP/dt (anesthetized dogs; dose 0.3 mg/kg weight): −5.9%; PQ interval (anesthetized dogs; dose 0.3 mg/kg weight): −1.5%; QRS interval (anesthetized dogs; dose 0.3 mg/kg weight): 0.4%; QTc interval (anesthetized dogs; dose 0.3 mg/kg weight): 1.9%; mAP (anesthetized dogs; dose 0.3 mg/kg weight): −0.9%
Cc1cccc(C)c1OCC(C)N (centres unmarked) [Mexiletine]							exhibited effects on the cardiovascular system						HR (anesthetized dogs; dose 2.2 mg/kg weight): −2.8%; LVdP/dt (anesthetized dogs; dose 2.2 mg/kg weight): −20.8%; PQ interval (anesthetized dogs; dose 2.2 mg/kg weight): 0.7%; QRS interval (anesthetized dogs; dose 2.2 mg/kg weight): 1.8%; QTc interval (anesthetized dogs; dose 2.2 mg/kg weight): −3.0%; mAP (anesthetized dogs; dose 2.2 mg/kg weight): −6.2%; HR (anesthetized dogs; dose 6.6 mg/kg weight): −10.6%; LVdP/dt (anesthetized dogs; dose 6.6 mg/kg weight): −47.8%; PQ interval (anesthetized dogs; dose 6.6 mg/kg weight): 3.4%; QRS interval (anesthetized dogs; dose 6.6 mg/kg weight): 6.3%; QTc interval (anesthetized dogs; dose 6.6 mg/kg weight): −4.6%; mAP (anesthetized dogs; dose 6.6 mg/kg weight): −44.2%; ED50 [1]: 1 to 3 mg/kg
CCN(CC)CCCN(c1ccccc1)C1Cc2ccccc2C1 [Aprindine]							exhibited effects on the cardiovascular system						HR (anesthetized dogs; dose 2 mg/kg weight): −12.8%; LVdP/dt (anesthetized dogs; dose 2 mg/kg weight): −29%; PQ interval (anesthetized dogs; dose 2 mg/kg weight): 14.2%; QTc interval (anesthetized dogs; dose 2 mg/kg weight): 4.5%; mAP (anesthetized dogs; dose 2 mg/kg weight): −34.7%; HR (anesthetized dogs; dose 4 mg/kg weight): −19.2%; LVdP/dt (anesthetized dogs; dose 4 mg/kg weight): −47.5%; QTc interval (anesthetized dogs; dose 4 mg/kg weight): −0.4%; PQ interval (anesthetized dogs): 36.8%; mAP (anesthetized dogs): −47.7%
O=C(NCC1CCCCN1)c1cc(OCC(F)(F)F)ccc1OCC(F)(F)F (centres unmarked) [Flecainide]	−8.6	−18.2	8.8	6.4	2.3	−14.2	exhibited effects on the cardiovascular system	−24.8	−56.9	36.1	9.3	−42.9	QRS interval (anesthetized dogs; dose 3 mg/kg weight): 37.1%
Cc1cccc(C)c1NC(=O)CC12CCCN1CCC2 [Pilsicainide]	−1.0	−20.6	17.4		4.6	−3.2	exhibited effects on the cardiovascular system	−5.0	−31.7	55.1	5.3	−8.2	
